{"source": "patent US9145403B2", "about": "“Heterocyclic alkanol derivatives” (Bayer Intellectual Property GmbH, priority 2010, dated 2015)", "key": {"Leptosphaeria nodorum": {"tested_on": "Leptosphaeria nodorum", "assay": "Leptosphaeria nodorum test (wheat)/protective", "type": "in vivo", "settings": "young wheat plants sprayed at 500 ppm, inoculated 1 day after treatment, evaluation 7-9 days after inoculation; 0% = control, 100% = no infection", "procedure": "Leptosphaeria nodorum Test (Wheat)/Protective Solvent: 49 parts by weight of N,N-dimethyformamide Emulsifler: 1 part by weight of alkylaryl polyglycol ether To produce an appropriate active ingredient formulation, 1 part by weight of active ingredient is mixed with the specified amounts of solvent and emulsifler, and the concentrate is diluted with water to the desired concentration. To test for protective activity, young plants are sprayed with the formulation of active ingredient at the stated application rate. One day after the treatment, the plants are inoculated with an aqueous spore suspension of Leptosphaeria nodorum and then remain at 100% relative air humidity and 22° C. for 48 h. The plants are then placed in a greenhouse at 90% relative air humidity and a temperature of 22° C. Evaluation follows 7-9 days after the inoculation. 0% means an efficacy which corresponds to that of the control, whereas an efficacy of 100% means that no infection is observed. In this test, the following inventive compounds, at an active ingredient concentration of 500 ppm, show an efficacy of 70% or more."}, "Puccinia recondita": {"tested_on": "Puccinia recondita", "assay": "Puccinia test (wheat)/protective", "type": "in vivo", "settings": "young wheat plants sprayed at 500 ppm, inoculated 1 day after treatment, evaluation 7-9 days after inoculation; 0% = control, 100% = no infection", "procedure": "Puccinia Test (Wheat)/Protective Solvent: 49 parts by weight of N,N-dimethyformamide Emulsifier: 1 part by weight of alkylaryl polyglycol ether To produce an appropriate active ingredient formulation, 1 part by weight of active ingredient is mixed with the specified amounts of solvent and emulsifier, and the concentrate is diluted with water to the desired concentration. To test for protective activity, young plants are sprayed with the formulation of active ingredient at the stated application rate. One day after the treatment, the plants are inoculated with a spore suspension of Puccinia recondita and then left at 100% relative humidity and 22° C. for 48 h. The plants are then left at 80% relative air humidity and a temperature of 20° C. Evaluation follows 7-9 days after the inoculation. 0% means an efficacy which corresponds to that of the control, whereas an efficacy of 100% means that no infection is observed. In this test, the following inventive compounds, at an active ingredient concentration of 500 ppm, show an efficacy of 70% or more."}, "Sphaerotheca fuliginea": {"tested_on": "Sphaerotheca fuliginea", "assay": "Sphaerotheca test (cucumber)/protective", "type": "in vivo", "settings": "young cucumber plants sprayed at 500 ppm, inoculated 1 day after treatment, evaluation 7 days after inoculation; 0% = control, 100% = no infection", "procedure": "Table D: Sphaerotheca Test (Cucumber)/Protective Solvent: 49 parts by weight of N,N-dimethylformamide Emulsifier: 1 part by weight of alkylaryl polyglycol ether To produce an appropriate active ingredient formulation, 1 part by weight of active ingredient is mixed with the specified amounts of solvent and emulsifier, and the concentrate is diluted with water to the desired concentration. To test for protective activity, young cucumber plants are sprayed with the formulation of active ingredient at the stated application rate. 1 day after the treatment, the plants are inoculated with a spore suspension of Sphaerotheca fuliginea. The plants are then placed in a greenhouse at 70% relative air humidity and a temperature of 23° C. Evaluation follows 7 days after the inoculation. 0% means an efficacy which corresponds to that of the control, whereas an efficacy of 100% means that no infection is observed. In this test, the following inventive compounds, at an active ingredient concentration of 500 ppm, show an efficacy of 70% or more."}, "Alternaria solani": {"tested_on": "Alternaria solani", "assay": "Alternaria test (tomato)/protective", "type": "in vivo", "settings": "young tomato plants sprayed at 500 ppm, inoculated 1 day after treatment, evaluation 7 days after inoculation; 0% = control, 100% = no infection", "procedure": "Alternaria Test (Tomato)/Protective Solvent: 49 parts by weight of N,N-dimethyformamide Emulsifier: 1 part by weight of alkylaryl polyglycol ether To produce an appropriate active ingredient formulation, 1 part by weight of active ingredient is mixed with the specified amounts of solvent and emulsifier, and the concentrate is diluted with water to the desired concentration. To test for protective activity, young tomato plants are sprayed with the formulation of active ingredient at the stated application rate. One day after the treatment, the plants are inoculated with a spore suspension of Alternaria solani and are then left at 100% relative humidity and 22° C. for 24 hours. The plants are then left at 96% relative air humidity and a temperature of 20° C. Evaluation follows 7 days after the inoculation. 0% means an efficacy which corresponds to that of the control, whereas an efficacy of 100% means that no infection is observed. In this test, the following inventive compounds, at an active ingredient concentration of 500 ppm, show an efficacy of 70% or more."}, "[1]": {"assay": "log P by HPLC (EEC Directive 79/831 Annex V.A8), reversed-phase C18", "type": "physicochemical", "settings": "reversed-phase C18 HPLC column; method [a]: LC-MS, acidic range, pH 2.7, 0.1% aqueous formic acid/acetonitrile, linear gradient 10% to 95% acetonitrile", "procedure": "The log P values were measured in accordance with EEC Directive 79/831 Annex V.A8 by HPLC (High Performance Liquid Chromatography) using reversed-phase columns (C 18) by the following methods: [a] The LC-MS determination in the acidic range is effected at pH 2.7 with 0.1% aqueous formic acid and acetonitrile (contains 0.1% formic acid) as eluents; linear gradient from 10% acetonitrile to 95% acetonitrile."}}}
{"compound": "CC(C)(C)c1ncc(OCC(O)(c2cncs2)C(C)(C)C)cn1", "note": "(centres unmarked) [Compound 2]", "values": [{"measurement": "Efficacy (%)", "setting": "Leptosphaeria nodorum", "value": 95, "unit": "%"}]}
{"compound": "CC(C)(C)C(O)(COc1ccc(Cl)nc1)c1cncs1", "note": "(centres unmarked) [Compound 3]", "values": [{"measurement": "Efficacy (%)", "setting": "Puccinia recondita", "value": 80, "unit": "%"}, {"measurement": "Efficacy (%)", "setting": "Sphaerotheca fuliginea", "value": 80, "unit": "%"}, {"measurement": "Efficacy (%)", "setting": "Alternaria solani", "value": 89, "unit": "%"}]}
{"compound": "CC(C)(C)C(O)(COc1cccnc1)c1cncs1", "note": "(centres unmarked) [Compound 4]", "values": [{"measurement": "Efficacy (%)", "setting": "Puccinia recondita", "value": 80, "unit": "%"}, {"measurement": "chromatographic logP", "setting": "[1]", "value": 0.89}]}
{"compound": "CC(C)(C)C(O)(COc1cncnc1)c1cncs1", "note": "(centres unmarked) [Compound 6]", "values": [{"measurement": "Efficacy (%)", "setting": "Leptosphaeria nodorum", "value": 70, "unit": "%"}, {"measurement": "chromatographic logP", "setting": "[1]", "value": 1.4}]}
